Assay results from patent publication US4689346A, “Therapeutic 1-(acylamino)-naphthalene-4-sulphonic acid derivatives” (Laboratorio Fides, S.A., priority 1982, dated 1987).
Like-named read-outs stand apart in the source and are kept apart here.

Tests used:
[1] = tested on: vascular permeability produced by histamine; assay: Capillary permeability, Lefebre's method (vascular permeability produced by histamine in rats); type: in vivo; details: 0.100 g/kg, subcutaneous
Description: The effect on the capillary permeability is determined by means of Lefebre's method, which is based on measuring, at the time of appearance of a coloration, the vascular permeability produced by histamine in rats that have been injected with the product under investigation. Ethamsylate is used as a standard, and the results obtained are as follows: […]

fibrin plates = assay: Antifibrinolytic activity in vitro by means of fibrin plates, modified and standardized method of Astrup and Mullertz; type: biochemical; details: AMCHA as standard (= 1)
Description: The antifibrinolytic activity is evaluated "in vitro" by means of fibrin plates according to the modified and standardized method of Astrup and Mullertz.
The antifibrinolytic activity of the test solution is calculated by interpolating the lysis response in a dose/response curve obtained with reference solutions (graduated dilutions of a standard enzyme). AMCHA was used as a standard antifibrinolytic compound.

[2] = Acute toxicity, LD50 in mice; type: in vivo; details: mouse, in vivo
Description: (§1) The LD50 in mice is determined for the endovenous, intraperitoneal and oral routes.

[3] = tested on: mean bleeding (clotting) time measured in a rabbit ear; assay: Hemostatic activity: mean bleeding (clotting) time in a rabbit ear, technique of Roskam and Pauwen; type: in vivo; details: i.v.
Description: The hemostatic activity is determined by means of a quantitative study of the mean bleeding (clotting) time measured in a rabbit ear by the technique described by Roskam and Pauwen.
Ethamsylate was used as a standard, and the results obtained were as follows: […]

capillary resistance = assay: Capillary resistance, modified technique based on that of Lavollay (time to first central petechiae under vacuum, scorbutic diet); type: in vivo; details: 0.175 g/kg, oral, guinea-pigs, four weeks
Description: The effect on the capillary resistance is determined by means of a modified technique based on that of Lavollay. An increasingly powerful vacuum is applied to the skin, and the time that elapses before the first central petechiae appear is taken as a measure of the capillary resistance. Three batches of guinea-pigs are used for each product tested, one batch being a normal batch and the two other batches being subjected to a scorbutic diet, one of the latter batches having received the product under investigation from the start of the trial. An initial basal reading and other weekly readings are taken for four weeks. Ethamsylate is used as a standard.

mice = assay: Acute toxicity, LD50 in mice; type: in vivo; details: for Acute toxicity, LD50, I.v. route: i.v. (endovenous)
Description: as §1

Row | SMILES | Capillary permeability, % Effect [1] | Antifibrinolytic activity, Relative capacity (fibrin plates) | Antifibrinolytic activity, Weight capacity (fibrin plates) | LD50 ([2]; iv, i.v. (endovenous), read-out: Acute toxicity, LD50, I.v. route) | Hemostatic activity, % Effect ([3]; 10 mg/kg) | Capillary resistance, % Effect (capillary resistance) | Hemostatic activity, % Effect ([3]; 100 mg/kg) | Hemostatic activity, % Effect ([3]; 25 mg/kg) | Acute toxicity, LD50, I.p. route (mice) | Acute toxicity, LD50, I.v. route (mice) | Acute toxicity, LD50, Oral route (mice) | LD50 ([2]; ip, read-out: Acute toxicity, LD50, I.p. route) | LD50 ([2]; po, read-out: Acute toxicity, LD50, Oral route)
1 | O=S(=O)(O)c1cc(O)ccc1O [Ethamsylate, reference compound] | 26.33% | 0.47 | 0.28 | 800 mg/kg | 22.11% | 14.18% | – | – | – | – | – | – | –
2 | NC[C@H]1CC[C@H](C(=O)O)CC1 [AMCHA, trans-4-(aminomethyl)-cyclohexanecarboxylic acid, reference compound] | -2% | – | 1 | – | 22.5% | 20.08% | 26.5% | – | – | – | – | – | –
3 | CC(=O)Nc1c(OC(C)=O)cc(S(=O)(=O)O)c2ccccc12 [Example 5, sodium N,O-diacetyl-1-amino-2-naphthol-4-sulphonate] | – | 1.19 | 0.55 | – | – | 26% | – | 10.6% | – | – | – | – | –
4 | CC(=O)Oc1cc(S(=O)(=O)O)c2ccccc2c1N(C(C)=O)C(C)=O [Example 4, sodium N,N,O-triacetyl-1-amino-2-naphthol-4-sulphonate] | – | 2.61 | 1.21 | – | 29.7% | 17.9% | 29.8% | – | 5260 mg/kg | 3510 mg/kg | > 7000 mg/kg | – | –
5 | CC(=O)Oc1cc(S(=O)(=O)O)c2ccccc2c1N(C(C)=O)C(C)=O [Example 1, potassium N,N,O-triacetyl-1-amino-2-naphthol-4-sulphonate] | 19% | 2.06 | 0.91 | – | 18.2% | 23.6% | 23% | – | – | 653 mg/kg | – | 3560 mg/kg | > 7000 mg/kg
6 | CC(=O)Oc1cc(S(=O)(=O)O)c2ccccc2c1N(C(C)=O)C(C)=O [Example 2, morpholine N,N,O-triacetyl-1-amino-2-naphthol-4-sulphonate] | 29% | 1.67 | 0.59 | – | 24.7% | 23.95% | 13% | – | 4040 mg/kg | 1530 mg/kg | > 7000 mg/kg | – | –
7 | CC(=O)Oc1cc(S(=O)(=O)O)c2ccccc2c1N(C(C)=O)C(C)=O [Example 11, AMCHA N,N,O-triacetyl-1-amino-2-naphthol-4-sulphonate] | 14% | 3.36 | 1.19 | – | 20% | 22.6% | 32% | – | – | – | – | – | –
